Source: patent US10494366B2, “Pesticidally active amide heterocyclic derivatives with sulphur containing substituents” (Syngenta Participations AG, priority 2014, dated 2019)

What was measured:
Assay type in all cases: in vivo
[1] = system: Euschistus heros (neotropical brown stink bug); assay: Example B6: Euschistus heros, sprayed soybean leaf; conditions: 120 h, application rate 200 ppm, N-2 nymphs, 5 days after infestation
From the text: Soybean leaf on agar in 24-well microtiter plates were sprayed with aqueous test solutions prepared from 10,000 ppm DMSO stock solutions. After drying the leaf were infested with N-2 nymphs.

[2] = system: Spodoptera littoralis (Egyptian cotton leaf worm); assay: Example B1: Spodoptera littoralis, sprayed cotton leaf discs; conditions: foliar, 72 h, application rate 200 ppm, L1 larvae, 3 days after infestation, read-out: control in at least one of the three categories (mortality, anti-feedancy or growth inhibition)
Experimental: Cotton leaf discs were placed on agar in 24-well microtiter plates and sprayed with aqueous test solutions prepared from 10,000 ppm DMSO stock solutions. After drying the leaf discs were infested with five L1 larvae. The samples were assessed for mortality, anti-feedant effect, and growth inhibition in comparison to untreated samples 3 days after infestation. Control of Spodoptera littoralis by a test sample is when at least one of mortality, anti-feedant effect, and growth inhibition is higher than the untreated sample.

[3] = system: Diabrotica balteata (corn root worm); assay: Example B4: Diabrotica balteata, sprayed maize sprouts; conditions: 96 h, application rate 200 ppm, L2 larvae, 4 days after infestation, read-out: effect in at least one of the two categories (mortality or growth inhibition)
Experimental: Maize sprouts, placed on an agar layer in 24-well microtiter plates were treated with aqueous test solutions prepared from 10,000 ppm DMSO stock solutions by spraying. After drying, the plates were infested with L2 larvae (6 to 10 per well). The samples were assessed for mortality and growth inhibition in comparison to untreated samples 4 days after infestation.

[4] = system: Plutella xylostella (diamond back moth); assay: Example B3: Plutella xylostella, treated artificial diet; conditions: 120 h, application rate 200 ppm, L2 larvae, 5 days after infestation, read-out: effect in at least one of the two categories (mortality or growth inhibition)
Experimental: 24-well microtiter plates with artificial diet were treated with aqueous test solutions prepared from 10,000 ppm DMSO stock solutions by pipetting. After drying, the plates were infested with L2 larvae (10 to 15 per well). The samples were assessed for mortality and growth inhibition in comparison to untreated samples 5 days after infestation.

[5] = system: Spodoptera littoralis (Egyptian cotton leaf worm); assay: Example B2: Spodoptera littoralis, systemic test via lettuce roots in agar; conditions: 144 h, application rate 12.5 ppm, Spodoptera eggs, 6 days after infestation, read-out: control in at least one of the three categories (mortality, anti-feedancy or growth inhibition)
From the text: Test compounds were applied by pipette from 10,000 ppm DMSO stock solutions into 24-well plates and mixed with agar. Lettuce seeds were placed on the agar and the multi well plate was closed by another plate which contains also agar. After 7 days the roots have absorbed the compound and the lettuce has grown into the lid plate. The lettuce leafs were now cut off into the lid plate. Spodoptera eggs were pipetted through a plastic stencil on a humid gel blotting paper and the plate closed with it. The samples were assessed for mortality, anti-feedant effect and growth inhibition in comparison to untreated samples 6 days after infestation.
The following compounds gave an effect of at least 80% control in at least one of the three categories (mortality, anti-feedancy or growth inhibition) at an application rate of 12.5 ppm: P2, P3, P8, P9, P11 and P17, P19, P20, P22, P23, P25, P26, P28, P30, P31, P32, P33, P40, P42, P43, P44, P45, P46, P47, P48, P49, P50, P51, P52, P53, P54, P60 and P61.

[6] = system: Myzus persicae (green peach aphid); assay: Example B5: Myzus persicae, sprayed sunflower leaf discs; conditions: foliar, 144 h, application rate 200 ppm, aphid population of mixed ages, 6 days after infestation
Experimental: Sunflower leaf discs were placed on agar in a 24-well microtiter plate and sprayed with aqueous test solutions prepared from 10,000 ppm DMSO stock solutions. After drying, the leaf discs were infested with an aphid population of mixed ages. The samples were assessed for mortality 6 days after infestation.

CCS(=O)(=O)c1cc(-c2ccc(C#N)nc2)cnc1C(=O)/N=c1\sc(C(F)(F)F)nn1C [Compound P52]
≥ 80%: mortality at 200 ppm [1] | percent control (mortality, anti-feedant effect or growth inhibition) at 200 ppm [2] | percent effect (mortality or growth inhibition) at 200 ppm [3] | percent effect (mortality or growth inhibition) at 200 ppm [4] | percent control (mortality, anti-feedant effect or growth inhibition) at 12.5 ppm [5]

CCS(=O)(=O)c1cc(-c2ncc(F)cc2F)cnc1C(=O)/N=c1\sc(C(F)(F)F)nn1C [Compound P66]
≥ 80%: mortality at 200 ppm [1] | percent control (mortality, anti-feedant effect or growth inhibition) at 200 ppm [2] | percent effect (mortality or growth inhibition) at 200 ppm [3] | percent effect (mortality or growth inhibition) at 200 ppm [4] | mortality at 200 ppm [6]

CCS(=O)(=O)c1cc(-c2ncc(C(F)(F)F)cc2F)cnc1C(=O)/N=c1\sc(C(F)(F)F)nn1C [Compound P47]
≥ 80%: mortality at 200 ppm [1] | percent control (mortality, anti-feedant effect or growth inhibition) at 200 ppm [2] | percent effect (mortality or growth inhibition) at 200 ppm [3] | percent effect (mortality or growth inhibition) at 200 ppm [4] | percent control (mortality, anti-feedant effect or growth inhibition) at 12.5 ppm [5]

CCS(=O)(=O)c1cc(-c2cnc(C(F)(F)F)s2)cnc1C(=O)/N=c1\sc(C(F)(F)F)nn1C [Compound P56]
≥ 80%: percent control (mortality, anti-feedant effect or growth inhibition) at 200 ppm [2] | percent effect (mortality or growth inhibition) at 200 ppm [3] | percent effect (mortality or growth inhibition) at 200 ppm [4] | mortality at 200 ppm [6]

CCS(=O)(=O)c1cc(-c2cccc(Cl)n2)cnc1C(=O)/N=c1\sc(C(F)(F)F)nn1C [Compound P64, (N)-5-(6-chloro-2-pyridyl)-3-ethylsulfonyl-N-[3-methyl-5-(trifluoromethyl)-1,3,4-thiadiazol-2-ylidene]pyridine-2-carboxamide]
≥ 80%: mortality at 200 ppm [1] | percent control (mortality, anti-feedant effect or growth inhibition) at 200 ppm [2] | percent effect (mortality or growth inhibition) at 200 ppm [3] | percent effect (mortality or growth inhibition) at 200 ppm [4] | mortality at 200 ppm [6]

CCS(=O)(=O)c1cc(-c2cccc(C#N)n2)cnc1C(=O)/N=c1\sc(C(F)(F)F)nn1C [Compound P48]
≥ 80%: mortality at 200 ppm [1] | percent control (mortality, anti-feedant effect or growth inhibition) at 200 ppm [2] | percent effect (mortality or growth inhibition) at 200 ppm [3] | percent effect (mortality or growth inhibition) at 200 ppm [4] | percent control (mortality, anti-feedant effect or growth inhibition) at 12.5 ppm [5]

CCS(=O)(=O)c1cc(-c2ccc(F)cc2F)cnc1C(=O)/N=c1\sc(C(F)(F)F)nn1C [Compound P25]
≥ 80%: mortality at 200 ppm [1] | percent control (mortality, anti-feedant effect or growth inhibition) at 200 ppm [2] | percent effect (mortality or growth inhibition) at 200 ppm [3] | percent effect (mortality or growth inhibition) at 200 ppm [4] | percent control (mortality, anti-feedant effect or growth inhibition) at 12.5 ppm [5]

CCS(=O)(=O)c1cc(-c2cccc(C(F)(F)F)n2)cnc1C(=O)/N=c1\sc(C(F)(F)F)nn1C [Compound P44]
≥ 80%: mortality at 200 ppm [1] | percent control (mortality, anti-feedant effect or growth inhibition) at 200 ppm [2] | percent effect (mortality or growth inhibition) at 200 ppm [3] | percent effect (mortality or growth inhibition) at 200 ppm [4] | percent control (mortality, anti-feedant effect or growth inhibition) at 12.5 ppm [5]

CCS(=O)(=O)c1cc(-c2ccc(C#N)cc2)cnc1C(=O)/N=c1\sc(C(F)(F)F)nn1C [Compound P28]
≥ 80%: mortality at 200 ppm [1] | percent control (mortality, anti-feedant effect or growth inhibition) at 200 ppm [2] | percent effect (mortality or growth inhibition) at 200 ppm [3] | percent effect (mortality or growth inhibition) at 200 ppm [4] | percent control (mortality, anti-feedant effect or growth inhibition) at 12.5 ppm [5]

CCS(=O)(=O)c1cc(-c2ccccc2)cnc1C(=O)/N=c1\sc(C(F)(F)F)nn1C [Compound P6, (N)-3-ethylsulfonyl-N-[3-methyl-5-(trifluoromethyl)-1,3,4-thiadiazol-2-ylidene]-5-phenyl-pyridine-2-carboxamide]
≥ 80%: mortality at 200 ppm [1] | percent control (mortality, anti-feedant effect or growth inhibition) at 200 ppm [2] | percent effect (mortality or growth inhibition) at 200 ppm [3] | percent effect (mortality or growth inhibition) at 200 ppm [4] | mortality at 200 ppm [6]

CCS(=O)(=O)c1cc(-c2ncc(C(F)(F)F)cn2)cnc1C(=O)/N=c1\sc(C(F)(F)F)nn1C [Compound P43]
≥ 80%: mortality at 200 ppm [1] | percent control (mortality, anti-feedant effect or growth inhibition) at 200 ppm [2] | percent effect (mortality or growth inhibition) at 200 ppm [3] | percent effect (mortality or growth inhibition) at 200 ppm [4] | percent control (mortality, anti-feedant effect or growth inhibition) at 12.5 ppm [5]

CCS(=O)(=O)c1cc(-c2cncc(C(F)(F)F)n2)cnc1C(=O)/N=c1\sc(C(F)(F)F)nn1C [Compound P61]
≥ 80%: mortality at 200 ppm [1] | percent control (mortality, anti-feedant effect or growth inhibition) at 200 ppm [2] | percent effect (mortality or growth inhibition) at 200 ppm [3] | percent effect (mortality or growth inhibition) at 200 ppm [4] | percent control (mortality, anti-feedant effect or growth inhibition) at 12.5 ppm [5]

CCS(=O)(=O)c1cc(-c2ccc(Cl)cn2)cnc1C(=O)/N=c1\sc(C(F)(F)F)nn1C [Compound P49]
≥ 80%: mortality at 200 ppm [1] | percent control (mortality, anti-feedant effect or growth inhibition) at 200 ppm [2] | percent effect (mortality or growth inhibition) at 200 ppm [3] | percent effect (mortality or growth inhibition) at 200 ppm [4] | percent control (mortality, anti-feedant effect or growth inhibition) at 12.5 ppm [5]

CCS(=O)(=O)c1cc(-c2ccc(F)cc2)cnc1C(=O)/N=c1\sc(C(F)(F)F)nn1C [Compound P32]
≥ 80%: mortality at 200 ppm [1] | percent control (mortality, anti-feedant effect or growth inhibition) at 200 ppm [2] | percent effect (mortality or growth inhibition) at 200 ppm [3] | percent effect (mortality or growth inhibition) at 200 ppm [4] | percent control (mortality, anti-feedant effect or growth inhibition) at 12.5 ppm [5]

CCS(=O)(=O)c1cc(-c2ccc(C(F)(F)F)cn2)cnc1C(=O)/N=c1\sc(C(F)(F)F)nn1C [Compound P50]
≥ 80%: mortality at 200 ppm [1] | percent control (mortality, anti-feedant effect or growth inhibition) at 200 ppm [2] | percent effect (mortality or growth inhibition) at 200 ppm [3] | percent effect (mortality or growth inhibition) at 200 ppm [4] | percent control (mortality, anti-feedant effect or growth inhibition) at 12.5 ppm [5]

CCS(=O)(=O)c1cc(-c2cc(F)ccc2F)cnc1C(=O)/N=c1\sc(C(F)(F)F)nn1C [Compound P33]
≥ 80%: mortality at 200 ppm [1] | percent control (mortality, anti-feedant effect or growth inhibition) at 200 ppm [2] | percent effect (mortality or growth inhibition) at 200 ppm [3] | percent effect (mortality or growth inhibition) at 200 ppm [4] | percent control (mortality, anti-feedant effect or growth inhibition) at 12.5 ppm [5]

CCS(=O)(=O)c1cc(-c2cccc(F)c2)cnc1C(=O)/N=c1\sc(C(F)(F)F)nn1C [Compound P26]
≥ 80%: mortality at 200 ppm [1] | percent control (mortality, anti-feedant effect or growth inhibition) at 200 ppm [2] | percent effect (mortality or growth inhibition) at 200 ppm [3] | percent effect (mortality or growth inhibition) at 200 ppm [4] | percent control (mortality, anti-feedant effect or growth inhibition) at 12.5 ppm [5]

CCS(=O)(=O)c1cc(-c2cccc(C#N)c2)cnc1C(=O)/N=c1\sc(C(F)(F)F)nn1C [Compound P23]
≥ 80%: mortality at 200 ppm [1] | percent control (mortality, anti-feedant effect or growth inhibition) at 200 ppm [2] | percent effect (mortality or growth inhibition) at 200 ppm [3] | percent effect (mortality or growth inhibition) at 200 ppm [4] | percent control (mortality, anti-feedant effect or growth inhibition) at 12.5 ppm [5]
